Assay results: patent US8367340B2, “Prognostic tools to predict the efficacy of drug treatment targeting chromatin DNA or enzymes acting on DNA” (University of Maryland, Baltimore, priority 2008, dated 2013)

Tested on: c-myc P2 promoter
Assay: PCR-Stop assay with real time PCR on genomic DNA of drug-treated RKO colon cancer cells
Type: cell-based, human
Details: 10 ng/ml TSA 4 h followed by 25 μM VP16 1 h, compared to the reverse combination and the single drug treatments
Excerpt: Top2 inhibitors induce preferential damage within the c-myc locus and more particularly within the P2 promoter of c-myc. […] By way of non-limiting example, the 3′ end region may be amplified using the following primers of the human c-myc gene: Forward: 5′[…]3′ [SEQ ID NO: 1], Reverse: 5′[…]3′ [SEQ ID NO:2]. Other suitable primers may be used, as would be apparent to those skilled in the art.
According to example embodiments, a comparative threshold (Ct) method may be used to quantify the results obtained by the real-time RT-PCR. The comparative Ct method involves comparing the Ct values of the samples of interest with a control or calibrator such as a non-treated sample from normal tissue. The Ct values of both the calibrator and the samples of interest are normalized to an appropriate endogenous housekeeping gene. Non-limiting example quantification methods include identifying the cycle number at which the reporter dye emission intensities rises above background noise: this cycle number is called the threshold number (Ct). The Ct is proportional to the breaks introduced in the target template; the higher the amount of breakage in the given target template, the higher the Ct measured.
By way of non-limiting example, the 3′ region of c-myc gene that has no type II topoisomerase cleavage site may be used as a reference. […]

In the case of `COc1cc([C@@H]2c3cc4c(cc3[C@@H](O[C@@H]3O[C@@H]5CO[C@@H](C)O[C@H]5[C@H](O)[C@H]3O)[C@H]3COC(=O)[C@H]23)OCO4)cc(OC)c1O` [VP16, etoposide], the “percentage of breaks at c-myc locus (type II topoisomerase mediated DNA breaks in c-myc P2 promoter)” value is reported as “considerably higher percentage of breaks”.
